Assay results taken from patent US20250262214A1, “INTERMITTENT DOSING REGIMEN FOR AZENOSERTIB IN TREATING CANCER” (Zeno Management, Inc., priority 2022, published 2025).

Tested on: MDA-MB-468 triple negative breast cancer tumor model
Experiment: MDA-MB-468 triple negative breast cancer tumor model, tumor growth inhibition
Type: in vivo
Conditions: niraparib single agent, 50 mg/kg
Procedure: In vivo exploration of dose and schedule of Azenosertib and PARPi (niraparib, talazoparib) including exploration of alternating dosing was evaluated.

## NC(=O)c1cccc2cn(-c3ccc([C@@H]4CCCNC4)cc3)nc12 [niraparib, reference compound]
  tumor growth inhibition (TGI): 47.7%
